Laboratory results: the OligoGym collection
HELM strings list units from the 5' end as sugar, base in round brackets, then linkage (d deoxyribose, r ribose, m 2'-O-methyl, p phosphodiester). Strings are as the collection lists them; they lack the last nucleoside at the 3' end of the tested compound. [moe] = 2'-O-(2-methoxyethyl) (MOE); [sp] = phosphorothioate linkage; [m5C] = 5-methylcytosine

molecular target: GFAP; experiment: mouse, dose not given; settings: ASO

For “RNA1{[moe](G)[sp].[moe]([m5C])p.[moe]([m5C])p.[moe](A)p.[moe](T)[sp].d(T)[sp].d(T)[sp].d(A)[sp].d(T)[sp].d([m5C])[sp].d(T)[sp].d(G)[sp].d(T)[sp].d(G)[sp].d([m5C])[sp].[moe](T)p.[moe](T)p.[moe](T)[sp].[moe](A)}$$$$ (last 3' nucleoside missing)”, which 3 h FOB score is on record?
Its 3 h FOB score is 6 score 0-7.

How did the 3 h FOB score turn out when “RNA1{[moe]([m5C])[sp].[moe](G)p.[moe](G)p.[moe]([m5C])p.[moe](T)[sp].d([m5C])[sp].d(T)[sp].d([m5C])[sp].d(T)[sp].d([m5C])[sp].d(A)[sp].d(T)[sp].d([m5C])[sp].d(T)[sp].d(G)[sp].[moe](T)p.[moe]([m5C])p.[moe](A)[sp].[moe](A)}$$$$ (last 3' nucleoside missing)” was run?
The 3 h FOB score was 2 score 0-7.

Which 3 h FOB score does the source give for “RNA1{[moe](G)[sp].[moe](T)p.[moe]([m5C])p.[moe](A)p.[moe]([m5C])[sp].d(A)[sp].d(T)[sp].d(T)[sp].d([m5C])[sp].d(A)[sp].d([m5C])[sp].d(T)[sp].d(A)[sp].d(A)[sp].d(T)[sp].[moe](A)p.[moe](T)p.[moe](T)[sp].[moe](T)}$$$$ (last 3' nucleoside missing)” here?
The 3 h FOB score was 0 score 0-7.

“RNA1{[moe]([m5C])[sp].[moe]([m5C])p.[moe](A)p.[moe](G)p.[moe](T)[sp].d(G)[sp].d([m5C])[sp].d([m5C])[sp].d([m5C])[sp].d(T)[sp].d(T)[sp].d([m5C])[sp].d([m5C])[sp].d([m5C])[sp].d(A)[sp].[moe]([m5C])p.[moe](G)p.[moe](A)[sp].[moe](G)}$$$$ (last 3' nucleoside missing)” was tested. Which 3 h FOB score did it give?
The 3 h FOB score was 2 score 0-7.

For “RNA1{[moe]([m5C])[sp].[moe]([m5C])p.[moe](T)p.[moe](G)p.[moe](T)p.[moe](G)p.d(A)[sp].d([m5C])[sp].d(T)[sp].d(A)[sp].d(T)[sp].d([m5C])[sp].d(T)[sp].d(A)[sp].d(G)[sp].d(G)[sp].[moe](A)p.[moe](T)[sp].[moe](T)}$$$$ (last 3' nucleoside missing)”, which 3 h FOB score is on record?
The 3 h FOB score was 1 score 0-7.

For “RNA1{[moe]([m5C])[sp].[moe](A)p.[moe](G)p.[moe]([m5C])p.[moe]([m5C])p.[moe](T)p.d(G)[sp].d(G)[sp].d(T)[sp].d(T)[sp].d(A)[sp].d(G)[sp].d([m5C])[sp].d([m5C])[sp].d(T)[sp].d(T)[sp].[moe](T)p.[moe]([m5C])[sp].[moe](T)}$$$$ (last 3' nucleoside missing)”, which 3 h FOB score is on record?
Its 3 h FOB score is 4 score 0-7.

Which 3 h FOB score does the source give for “RNA1{[moe](G)[sp].[moe](T)p.[moe](G)p.[moe](A)p.d([m5C])[sp].d(T)[sp].d(A)[sp].d(T)[sp].d([m5C])[sp].d(T)[sp].d(A)[sp].d(G)[sp].d(G)[sp].d(A)[sp].[moe](T)p.[moe](T)p.[moe](T)p.[moe](G)[sp].[moe](G)}$$$$ (last 3' nucleoside missing)” here?
Its 3 h FOB score is 3 score 0-7.

How did the 3 h FOB score turn out when “RNA1{[moe](T)[sp].[moe](T)p.[moe](T)p.[moe](A)p.[moe](T)p.[moe]([m5C])p.d(T)[sp].d(G)[sp].d(T)[sp].d(G)[sp].d([m5C])[sp].d(T)[sp].d(T)[sp].d(T)[sp].d(A)[sp].d(G)[sp].[moe](T)p.[moe](G)[sp].[moe](A)}$$$$ (last 3' nucleoside missing)” was run?
Its 3 h FOB score is 3 score 0-7.

Which 3 h FOB score does the source give for “RNA1{[moe](A)[sp].[moe](T)p.[moe](G)p.[moe](G)p.[moe](G)[sp].d(T)[sp].d(G)[sp].d(A)[sp].d(G)[sp].d(G)[sp].d(T)[sp].d(G)[sp].d(A)[sp].d(G)[sp].d(G)[sp].[moe](A)p.[moe](G)p.[moe](T)[sp].[moe]([m5C])}$$$$ (last 3' nucleoside missing)” here?
Its 3 h FOB score is 5 score 0-7.

“RNA1{[moe](G)[sp].[moe](T)p.[moe](G)p.[moe]([m5C])p.[moe](T)[sp].d(T)[sp].d(T)[sp].d(T)[sp].d([m5C])[sp].d(T)[sp].d(G)[sp].d([m5C])[sp].d([m5C])[sp].d(T)[sp].d([m5C])[sp].[moe]([m5C])p.[moe](A)p.[moe](G)[sp].[moe](G)}$$$$ (last 3' nucleoside missing)” was tested. Which 3 h FOB score did it give?
Its 3 h FOB score is 2 score 0-7.

How did the 3 h FOB score turn out when “RNA1{[moe]([m5C])[sp].[moe](G)p.[moe](T)p.[moe](G)p.[moe](T)[sp].d([m5C])[sp].d(A)[sp].d(G)[sp].d([m5C])[sp].d([m5C])[sp].d([m5C])[sp].d(T)[sp].d(G)[sp].d(A)[sp].d(G)[sp].[moe]([m5C])p.[moe](A)p.[moe]([m5C])[sp].[moe]([m5C])}$$$$ (last 3' nucleoside missing)” was run?
The 3 h FOB score was 2 score 0-7.

Which 3 h FOB score does the source give for “RNA1{[moe]([m5C])[sp].[moe](A)p.[moe]([m5C])p.[moe](A)p.[moe](T)p.[moe](T)p.d([m5C])[sp].d(A)[sp].d([m5C])[sp].d(T)[sp].d(A)[sp].d(A)[sp].d(T)[sp].d(A)[sp].d(T)[sp].d(T)[sp].[moe](T)p.[moe](A)[sp].[moe](A)}$$$$ (last 3' nucleoside missing)” here?
Its 3 h FOB score is 0 score 0-7.

For “RNA1{[moe](T)[sp].[moe]([m5C])p.[moe](T)p.[moe](T)p.[moe](T)p.[moe](A)p.d(T)[sp].d(T)[sp].d(T)[sp].d(T)[sp].d(T)[sp].d([m5C])[sp].d([m5C])[sp].d(T)[sp].d([m5C])[sp].d(A)[sp].[moe](G)p.[moe]([m5C])[sp].[moe](G)}$$$$ (last 3' nucleoside missing)”, which 3 h FOB score is on record?
The 3 h FOB score was 0 score 0-7.

With “RNA1{[moe](T)[sp].[moe](T)p.[moe](A)p.[moe](T)p.[moe](T)[sp].d(T)[sp].d(T)[sp].d(T)[sp].d([m5C])[sp].d([m5C])[sp].d(T)[sp].d([m5C])[sp].d(A)[sp].[moe](G)p.[moe]([m5C])p.[moe](G)[sp].[moe](A)}$$$$ (last 3' nucleoside missing)” as the substance, how does the 3 h FOB score read?
The 3 h FOB score was 0 score 0-7.

“RNA1{[moe](G)[sp].[moe](G)p.[moe](T)p.[moe](G)p.[moe](A)[sp].d(G)[sp].d(T)[sp].d(T)[sp].d(T)[sp].d([m5C])[sp].d(T)[sp].d(T)[sp].d(G)[sp].d(T)[sp].d(T)[sp].[moe](A)p.[moe](G)p.[moe](T)[sp].[moe](T)}$$$$ (last 3' nucleoside missing)” was tested. Which 3 h FOB score did it give?
The 3 h FOB score was 7 score 0-7.

For “RNA1{[moe](A)[sp].[moe]([m5C])p.[moe](T)p.[moe](A)p.d(G)[sp].d(T)[sp].d([m5C])[sp].d(A)[sp].d(G)[sp].d([m5C])[sp].d([m5C])[sp].d(T)[sp].d(G)[sp].d(G)[sp].[moe](T)p.[moe](T)p.[moe](A)p.[moe](G)[sp].[moe]([m5C])}$$$$ (last 3' nucleoside missing)”, which 3 h FOB score is on record?
The 3 h FOB score was 2 score 0-7.

Which 3 h FOB score does the source give for “RNA1{[moe]([m5C])[sp].[moe]([m5C])p.[moe]([m5C])p.[moe]([m5C])p.[moe]([m5C])[sp].d(T)[sp].d([m5C])[sp].d(T)[sp].d(A)[sp].d(T)[sp].d([m5C])[sp].d([m5C])[sp].d([m5C])[sp].d(T)[sp].d([m5C])[sp].[moe]([m5C])p.[moe]([m5C])p.[moe](A)[sp].[moe](G)}$$$$ (last 3' nucleoside missing)” here?
Its 3 h FOB score is 0 score 0-7.

“RNA1{[moe]([m5C])[sp].[moe](T)p.[moe](A)p.[moe](G)p.d(T)[sp].d([m5C])[sp].d(A)[sp].d(G)[sp].d([m5C])[sp].d([m5C])[sp].d(T)[sp].d(G)[sp].d(G)[sp].d(T)[sp].[moe](T)p.[moe](A)p.[moe](G)p.[moe]([m5C])[sp].[moe]([m5C])}$$$$ (last 3' nucleoside missing)” was tested. Which 3 h FOB score did it give?
The 3 h FOB score was 4 score 0-7.
